{
  "source": "patent US10428060B2",
  "about": "“PI-kinase inhibitors with anti-infective activity” (The Board of Trustees of the Leland Stanford Junior …, priority 2011, dated 2019)",
  "key": {"HCV genotype 2a": {"test_system": "HCV genotype 2a", "assay": "microbe, parasite or virus in culture", "type": "cell-based", "details": "Hepatitis C virus, Huh7.5, read-out: HCV2a EC50"}, "PI4KIIIA": {"target": "T1, PI4KIIIA (Homo sapiens, UniProt P42356)", "T1 construct": "made in house; host or cells: COS-7 cells, transient transfection, anti-HA immunoprecipitate on protein G Sepharose beads", "T1 sequence (P42356 whole entry)": "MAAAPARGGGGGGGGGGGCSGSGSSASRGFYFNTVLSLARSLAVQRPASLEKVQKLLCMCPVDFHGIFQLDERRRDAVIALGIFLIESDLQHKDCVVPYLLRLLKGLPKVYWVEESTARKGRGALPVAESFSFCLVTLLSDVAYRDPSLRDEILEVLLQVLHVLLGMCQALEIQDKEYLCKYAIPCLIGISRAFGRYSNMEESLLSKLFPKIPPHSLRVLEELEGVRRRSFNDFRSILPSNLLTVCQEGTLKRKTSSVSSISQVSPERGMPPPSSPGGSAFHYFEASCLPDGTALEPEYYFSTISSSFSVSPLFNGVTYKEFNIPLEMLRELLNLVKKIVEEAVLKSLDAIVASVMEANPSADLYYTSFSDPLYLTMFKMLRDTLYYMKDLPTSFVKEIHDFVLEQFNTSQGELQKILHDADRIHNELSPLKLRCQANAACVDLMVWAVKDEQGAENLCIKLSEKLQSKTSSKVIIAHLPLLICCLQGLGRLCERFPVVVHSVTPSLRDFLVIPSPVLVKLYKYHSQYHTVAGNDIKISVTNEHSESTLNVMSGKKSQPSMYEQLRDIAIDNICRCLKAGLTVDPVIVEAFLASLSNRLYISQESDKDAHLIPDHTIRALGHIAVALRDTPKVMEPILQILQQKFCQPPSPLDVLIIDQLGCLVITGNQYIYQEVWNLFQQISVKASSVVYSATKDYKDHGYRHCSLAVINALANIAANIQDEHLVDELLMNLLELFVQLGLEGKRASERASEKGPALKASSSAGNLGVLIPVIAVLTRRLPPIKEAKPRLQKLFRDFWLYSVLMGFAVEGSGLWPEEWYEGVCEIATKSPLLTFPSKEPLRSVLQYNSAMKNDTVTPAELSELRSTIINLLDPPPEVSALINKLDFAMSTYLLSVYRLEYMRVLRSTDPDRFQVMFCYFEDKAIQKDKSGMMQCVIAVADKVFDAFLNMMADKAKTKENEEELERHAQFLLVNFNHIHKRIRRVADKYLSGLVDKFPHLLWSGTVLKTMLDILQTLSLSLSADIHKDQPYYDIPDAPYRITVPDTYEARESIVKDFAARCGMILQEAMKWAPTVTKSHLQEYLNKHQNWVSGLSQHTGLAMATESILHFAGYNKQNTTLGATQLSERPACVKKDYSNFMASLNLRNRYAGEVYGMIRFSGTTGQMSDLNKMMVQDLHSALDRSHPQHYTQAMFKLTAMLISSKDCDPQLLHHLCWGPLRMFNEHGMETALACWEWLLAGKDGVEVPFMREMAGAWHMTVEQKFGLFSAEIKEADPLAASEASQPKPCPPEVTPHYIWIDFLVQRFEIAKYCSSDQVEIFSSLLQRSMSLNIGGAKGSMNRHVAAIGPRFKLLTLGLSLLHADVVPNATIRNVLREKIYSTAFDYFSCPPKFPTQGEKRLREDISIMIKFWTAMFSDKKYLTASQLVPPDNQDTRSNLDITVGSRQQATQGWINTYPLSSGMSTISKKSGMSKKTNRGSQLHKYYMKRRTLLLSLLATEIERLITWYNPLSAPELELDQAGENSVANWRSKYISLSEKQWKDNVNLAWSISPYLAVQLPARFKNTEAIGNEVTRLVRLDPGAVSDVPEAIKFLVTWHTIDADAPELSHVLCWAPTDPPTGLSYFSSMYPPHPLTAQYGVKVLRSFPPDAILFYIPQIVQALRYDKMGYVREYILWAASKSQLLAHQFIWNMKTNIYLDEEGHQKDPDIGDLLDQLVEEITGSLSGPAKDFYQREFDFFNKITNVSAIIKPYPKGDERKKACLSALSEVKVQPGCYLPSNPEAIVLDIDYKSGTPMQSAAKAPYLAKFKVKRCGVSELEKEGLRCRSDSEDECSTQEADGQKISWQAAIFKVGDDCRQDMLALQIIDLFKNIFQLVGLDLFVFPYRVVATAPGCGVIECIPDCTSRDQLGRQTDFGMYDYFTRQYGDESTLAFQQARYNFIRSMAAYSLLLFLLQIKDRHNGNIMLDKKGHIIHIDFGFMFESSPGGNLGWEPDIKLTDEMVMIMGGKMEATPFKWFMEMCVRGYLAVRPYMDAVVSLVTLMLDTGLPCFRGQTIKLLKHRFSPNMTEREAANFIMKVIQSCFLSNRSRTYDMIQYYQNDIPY", "assay": "PI4KIIIA kinase assay", "type": "biochemical", "method": "In the assays described here, p110α-p85 complex and p110γ were acquired from Millipore. Assays were performed with Lα-phosphatidylinositol (Avanti) as described in Knight et al. Nat Protoc. 2007; 2 (10):2459-66. Inhibitor series were prepared 10% DMSO as 5× stocks for the assay. Assays of HsVps34 were performed as described in Knight et al, except that the final assay buffer composition used was changed to 20 mM HEPES 7.5, 100 mM NaCl, 3 mM MgCl, 1 mg/mL PI and 44 nM hvps34 was used in the assay. […] COS-7 cells were cultured in 10 cm dishes and transfected at 70% confluence with 10 μg of plasmid DNA (HA-tagged bovine PI4KIIIβ, HA-tagged human PI4KIIIα) using Lipofectamine 2000 and 5 ml Opti-MEM following the manufacturer's instructions. After 5 hours the transfection medium was replaced with 10 ml complete DMEM. 36 hrs post transfection, cells were washed once with 5 ml PBS (pH 7.4) and lysed in 1 ml of lysis buffer (1) on ice. Lysates were collected by scraping and after 15 min they were centrifuged at 13,000 rpm for 10 min. To the lysates was added 200 μl of protein G Sepharose 4 fast flow beads that were prewashed with PBS and lysis buffer and 2 μg of anti-HA antibody. The tubes were then incubated overnight at 4 degrees C. in a tube rotator. The Sepharose beads in the lysate were washed twice with 150 mM NaCl in RIPA buffer, twice with RIPA buffer and once with kinase buffer (50 mM Tris/HCl, pH 7.5, 20 mM MgCl2, 1 mM EGTA, 1 mM PtdIns, 0.4% Triton X-100, 0.5 mg/mL BSA) and finally the beads were resuspended in 200 μL kinase buffer. Kinase reactions were run in a mixture of 45 μL of PI buffer (1 mM PI in kinase buffer), 10 μL of immunoprecipitated beads, 2 µL of inhibitors (dissolved and diluted in DMSO) or DMSO and 5 μL of [γ-^32P]-ATP (1 mM and 2 μCi/tube). The immunoprecipitates in PI buffer were pre-incubated with the drugs for 20 min prior the initiation of kinase reaction by adding ATP and the reactions were carried out for 30 min in 15 ml polypropolyne tubes. […] Samples were counted in a scintillation beta counter after adding 5 ml of Instafluor (Perkin-Elmer). […]"}, "PI3K p110a": {"target": "T2, PI3K p110a (Homo sapiens, UniProt P42336)", "T2 construct": "purchased Millipore", "T2 sequence (P42336 whole entry)": "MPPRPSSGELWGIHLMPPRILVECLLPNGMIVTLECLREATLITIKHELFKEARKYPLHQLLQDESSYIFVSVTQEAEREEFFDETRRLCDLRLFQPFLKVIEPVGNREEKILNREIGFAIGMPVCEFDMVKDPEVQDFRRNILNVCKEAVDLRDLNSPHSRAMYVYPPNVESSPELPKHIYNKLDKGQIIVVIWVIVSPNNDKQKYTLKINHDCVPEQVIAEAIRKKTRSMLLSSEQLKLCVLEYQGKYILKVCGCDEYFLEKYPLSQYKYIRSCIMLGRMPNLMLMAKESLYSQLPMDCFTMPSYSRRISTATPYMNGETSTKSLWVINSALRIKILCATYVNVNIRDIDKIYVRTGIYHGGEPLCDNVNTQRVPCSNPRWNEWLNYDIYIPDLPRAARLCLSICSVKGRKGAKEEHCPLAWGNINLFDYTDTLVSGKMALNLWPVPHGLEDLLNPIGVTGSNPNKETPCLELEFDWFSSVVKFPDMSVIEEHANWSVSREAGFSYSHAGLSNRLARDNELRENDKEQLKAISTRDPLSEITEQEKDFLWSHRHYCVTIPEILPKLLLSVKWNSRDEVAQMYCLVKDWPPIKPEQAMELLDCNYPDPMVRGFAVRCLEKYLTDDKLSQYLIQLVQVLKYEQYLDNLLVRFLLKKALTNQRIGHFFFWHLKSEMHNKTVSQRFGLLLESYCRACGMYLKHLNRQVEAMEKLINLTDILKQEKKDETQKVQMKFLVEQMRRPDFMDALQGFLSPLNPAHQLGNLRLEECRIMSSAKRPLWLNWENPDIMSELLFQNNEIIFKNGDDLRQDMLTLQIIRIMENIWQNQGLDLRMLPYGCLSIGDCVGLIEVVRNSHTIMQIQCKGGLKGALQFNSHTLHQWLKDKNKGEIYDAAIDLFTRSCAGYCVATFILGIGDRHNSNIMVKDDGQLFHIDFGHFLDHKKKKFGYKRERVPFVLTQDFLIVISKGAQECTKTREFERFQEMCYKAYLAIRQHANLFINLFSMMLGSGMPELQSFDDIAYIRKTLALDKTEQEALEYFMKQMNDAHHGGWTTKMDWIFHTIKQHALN", "T2 sequence (P27986 whole entry partner)": "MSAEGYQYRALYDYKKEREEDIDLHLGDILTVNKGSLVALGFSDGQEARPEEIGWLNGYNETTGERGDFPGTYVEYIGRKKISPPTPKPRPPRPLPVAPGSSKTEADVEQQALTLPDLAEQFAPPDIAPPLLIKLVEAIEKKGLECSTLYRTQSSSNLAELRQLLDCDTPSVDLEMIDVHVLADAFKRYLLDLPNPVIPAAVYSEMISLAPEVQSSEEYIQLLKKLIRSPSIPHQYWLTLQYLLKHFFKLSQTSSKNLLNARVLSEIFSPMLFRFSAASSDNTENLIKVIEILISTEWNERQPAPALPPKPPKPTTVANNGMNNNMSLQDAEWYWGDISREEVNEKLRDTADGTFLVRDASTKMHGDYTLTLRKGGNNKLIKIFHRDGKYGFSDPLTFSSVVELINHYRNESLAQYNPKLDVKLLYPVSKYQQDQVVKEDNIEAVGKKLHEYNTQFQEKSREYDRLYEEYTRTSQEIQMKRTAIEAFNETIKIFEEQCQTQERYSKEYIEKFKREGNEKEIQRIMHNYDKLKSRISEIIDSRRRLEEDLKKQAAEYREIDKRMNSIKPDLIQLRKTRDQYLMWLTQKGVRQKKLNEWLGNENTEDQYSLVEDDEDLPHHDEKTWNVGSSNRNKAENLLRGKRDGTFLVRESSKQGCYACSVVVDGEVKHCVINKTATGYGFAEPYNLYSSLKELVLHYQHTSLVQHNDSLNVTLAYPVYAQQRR", "assay": "PI3K p110a kinase assay", "type": "biochemical", "method": "In the assays described here, p110α-p85 complex and p110γ were acquired from Millipore. Assays were performed with Lα-phosphatidylinositol (Avanti) as described in Knight et al. Nat Protoc. […] Inhibitor series were prepared 10% DMSO as 5× stocks for the assay. […] COS-7 cells were cultured in 10 cm dishes and transfected at 70% confluence with 10 μg of plasmid DNA (HA-tagged bovine PI4KIIIβ, HA-tagged human PI4KIIIα) using Lipofectamine 2000 and 5 ml Opti-MEM following the manufacturer's instructions. After 5 hours the transfection medium was replaced with 10 ml complete DMEM. 36 hrs post transfection, cells were washed once with 5 ml PBS (pH 7.4) and lysed in 1 ml of lysis buffer (1) on ice. […] To the lysates was added 200 μl of protein G Sepharose 4 fast flow beads that were prewashed with PBS and lysis buffer and 2 μg of anti-HA antibody. The tubes were then incubated overnight at 4 degrees C. in a tube rotator. […] Kinase reactions were run in a mixture of 45 μL of PI buffer (1 mM PI in kinase buffer), 10 μL of immunoprecipitated beads, 2 µL of inhibitors (dissolved and diluted in DMSO) or DMSO and 5 μL of [γ-^32P]-ATP (1 mM and 2 μCi/tube). […] Samples were counted in a scintillation beta counter after adding 5 ml of Instafluor (Perkin-Elmer). […]"}},
  "data": [
    {"smiles": "COc1ncc(-c2sc(NC(=O)CC3CCOCC3)nc2C)cc1S(=O)(=O)NC1CCCC(O)C1", "note": "(stereo not drawn) [Compound S-263]", "values": [
      {"measurement": "EC50", "setting": "HCV genotype 2a", "result": "1 to 100", "unit": "nM"},
      {"measurement": "IC50", "setting": "PI4KIIIA", "result": "< 100", "unit": "nM"},
      {"measurement": "IC50", "setting": "PI3K p110a", "result": "1000 to 10000", "unit": "nM"}
    ]}
  ]
}
